Measured values published in patent publication US12178809B2, “Pyridinyl sulfonamide derivatives, pharmaceutical compositions and uses thereof” (Boehringer Ingelheim International GmbH, priority 2018, dated 2024).
Where a name gives a salt, the structure may show the parent alone. Read-outs that look alike come from different tables or passages of the source.

What was measured:
human AOC3 enzyme = human AOC3 enzyme (Homo sapiens (Human), UniProt Q16853); assay: AOC3 biochemical assay (MAO-Glo); details: read-out: AOC3 IC50
Sequence of human AOC3 enzyme (Q16853 whole entry): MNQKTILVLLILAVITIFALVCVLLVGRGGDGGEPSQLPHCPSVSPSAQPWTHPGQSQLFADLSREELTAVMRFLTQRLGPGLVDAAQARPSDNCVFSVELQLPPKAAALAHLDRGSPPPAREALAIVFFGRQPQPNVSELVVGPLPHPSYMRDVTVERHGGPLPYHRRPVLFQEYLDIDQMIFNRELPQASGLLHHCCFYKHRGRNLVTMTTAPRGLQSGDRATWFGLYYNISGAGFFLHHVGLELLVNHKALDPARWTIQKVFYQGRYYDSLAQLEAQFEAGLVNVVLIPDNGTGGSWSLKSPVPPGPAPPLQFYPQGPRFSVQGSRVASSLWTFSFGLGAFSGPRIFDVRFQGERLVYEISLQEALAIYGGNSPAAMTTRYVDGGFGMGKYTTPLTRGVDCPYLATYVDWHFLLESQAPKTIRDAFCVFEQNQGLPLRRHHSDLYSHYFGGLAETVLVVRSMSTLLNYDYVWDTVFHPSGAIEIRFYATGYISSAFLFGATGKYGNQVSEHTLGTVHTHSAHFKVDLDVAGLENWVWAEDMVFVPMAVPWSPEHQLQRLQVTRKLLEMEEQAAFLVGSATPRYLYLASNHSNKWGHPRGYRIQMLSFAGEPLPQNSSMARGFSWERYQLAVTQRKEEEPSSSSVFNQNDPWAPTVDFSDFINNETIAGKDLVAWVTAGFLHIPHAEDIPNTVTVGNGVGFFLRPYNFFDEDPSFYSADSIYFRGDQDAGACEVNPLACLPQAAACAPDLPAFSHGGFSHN
Description: The MAO-Glo™ Assay (commercially available from PROMEGA, #V1402) provides a sensitive method for the measurement of monoamine oxidase (MAO) activity (Valley, M. P. et al., 2006, Anal. Biochem. 359: 238-246) from a variety of tissues, biofluids or recombinant expressed or purified enzymes. As substrate a derivate of the beetle luciferin ((4S)-4,5-dihydro-2-(6-hydroxybenzothiazolyl)-4-thiazole-carboxylic acid) is used, which is oxidized at a primary amine moiety. After a spontaneous elimination and a catalyzed esterase reaction, the turnover of the luciferine by the luciferase is recorded as a signal of AOC3 activity.
An aliquot of 3 μL of the compound dilution is added to a 384 well plate (Optiplate, PS, flat bottom, white, PERKIN ELMER, #6007290) with a final DMSO concentration of 6.6%. Recombinant CHO cells, overexpressing the human (1500 cells/well), mouse (1000 cells/well) or rat (500 cells/well) AOC3 enzyme are diluted in reaction buffer and added in a volume of 15 μL to the wells. After incubation for 20 minutes at 37° C., 2 μL of MAO substrate (dissolved in DMSO at 16 mM, adjusted to assay concentration in reaction buffer to a final assay concentration of 20 μM) is added and further incubated for 60 minutes at 37° C. The turnover of the substrate is determined by the addition of 20 μL of the detection-mix which was generated by the addition of reconstitution buffer with esterase (PROMEGA, #V1402) to the luciferine detection reagent (PROMEGA, #V1402). After an incubation period of 20 minutes, the luminescent signal is measured with Envision 2104 Multilabel Reader (PERKIN ELMER).

AOC1 = AOC1 (Homo sapiens (Human), UniProt P19801); assay: AOC1 biochemical assay (Amplex Red)
Sequence of AOC1 (P19801 20-751): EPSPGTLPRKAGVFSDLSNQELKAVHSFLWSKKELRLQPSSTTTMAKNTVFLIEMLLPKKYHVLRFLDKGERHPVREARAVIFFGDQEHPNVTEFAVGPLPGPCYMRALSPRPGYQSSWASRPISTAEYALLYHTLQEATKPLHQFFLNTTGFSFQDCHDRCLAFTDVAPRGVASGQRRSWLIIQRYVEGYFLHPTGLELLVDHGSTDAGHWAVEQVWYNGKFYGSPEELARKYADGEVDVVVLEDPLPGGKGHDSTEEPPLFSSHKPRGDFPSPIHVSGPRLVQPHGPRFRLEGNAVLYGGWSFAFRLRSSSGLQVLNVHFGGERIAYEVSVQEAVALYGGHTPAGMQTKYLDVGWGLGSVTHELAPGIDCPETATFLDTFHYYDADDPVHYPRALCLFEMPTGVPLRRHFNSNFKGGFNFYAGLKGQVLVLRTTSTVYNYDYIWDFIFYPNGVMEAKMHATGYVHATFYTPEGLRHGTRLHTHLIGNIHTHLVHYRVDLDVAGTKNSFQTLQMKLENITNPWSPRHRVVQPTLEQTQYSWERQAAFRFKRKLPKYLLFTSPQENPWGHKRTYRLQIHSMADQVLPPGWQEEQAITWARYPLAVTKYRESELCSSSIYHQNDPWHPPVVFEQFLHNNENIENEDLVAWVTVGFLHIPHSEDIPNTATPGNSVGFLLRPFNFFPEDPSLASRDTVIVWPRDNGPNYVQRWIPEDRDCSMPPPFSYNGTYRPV
Description: The Amplex® Red Assay (available from Thermo Fisher Scientific) provides a sensitive method for the detection of H2O2 generated during enzymatic reactions like the amine oxidation catalyzed by AOC1. The assay reagent is a colorless substrate (N-acetyl-3,7-dihydroxyphenoxazine) that reacts in a 1:1 stoichiometry with hydrogen peroxide (H2O2) to produce the fluorescent dye resorufin (7-hydroxyphenoxazin-3-one, excitation/emission maxima=570/585 nm).
An aliquot of 3 μL of the compound dilution is added to a 384 well plate (Optiplate, PS, flat bottom F, black, PERKIN ELMER, #6007270) in a DMSO concentration of 6.6%.
An AOC1 enzyme aliquot (#8297-AO-010, R&D Systems) is thawed on ice, diluted in reaction buffer and added in a volume of 7 μL to the wells to give a final assay concentration of 1 ng/well. After incubation of inhibitor and enzyme for 30 minutes at 37° C., the enzymatic reaction is started with the addition of 10 μL of Amplex® Red reaction mix (final assay concentration: 100 mM sodiumphosphate, 120 μM Amplex® Red reagent (#A22177 Molecular Probes), 1.5 U/mL Horseradish Peroxidase (#P8375 Sigma-Aldrich), 200 μM putrescine (#P7505 Sigma-Alrdich), 0.05% Pluronic F-127 (#P3000MP Sigma-Aldrich), pH 7.4, 37° C.).
After an incubation for 30 minutes at 37° C. the turnover of the substrate is determined directly (or after the addition of an excess of an amine-oxidase inhibitor) with a fluorescence reader (Ex 540 nm/Em 590 nm) like Envision 2104 Multilabel Reader (PERKIN ELMER).

AOC2 = AOC2 (Homo sapiens (Human), UniProt O75106); assay: AOC2 biochemical assay (Amplex Red); details: for IC50: read-out: AOC2 IC50
Sequence of AOC2 (O75106 whole entry): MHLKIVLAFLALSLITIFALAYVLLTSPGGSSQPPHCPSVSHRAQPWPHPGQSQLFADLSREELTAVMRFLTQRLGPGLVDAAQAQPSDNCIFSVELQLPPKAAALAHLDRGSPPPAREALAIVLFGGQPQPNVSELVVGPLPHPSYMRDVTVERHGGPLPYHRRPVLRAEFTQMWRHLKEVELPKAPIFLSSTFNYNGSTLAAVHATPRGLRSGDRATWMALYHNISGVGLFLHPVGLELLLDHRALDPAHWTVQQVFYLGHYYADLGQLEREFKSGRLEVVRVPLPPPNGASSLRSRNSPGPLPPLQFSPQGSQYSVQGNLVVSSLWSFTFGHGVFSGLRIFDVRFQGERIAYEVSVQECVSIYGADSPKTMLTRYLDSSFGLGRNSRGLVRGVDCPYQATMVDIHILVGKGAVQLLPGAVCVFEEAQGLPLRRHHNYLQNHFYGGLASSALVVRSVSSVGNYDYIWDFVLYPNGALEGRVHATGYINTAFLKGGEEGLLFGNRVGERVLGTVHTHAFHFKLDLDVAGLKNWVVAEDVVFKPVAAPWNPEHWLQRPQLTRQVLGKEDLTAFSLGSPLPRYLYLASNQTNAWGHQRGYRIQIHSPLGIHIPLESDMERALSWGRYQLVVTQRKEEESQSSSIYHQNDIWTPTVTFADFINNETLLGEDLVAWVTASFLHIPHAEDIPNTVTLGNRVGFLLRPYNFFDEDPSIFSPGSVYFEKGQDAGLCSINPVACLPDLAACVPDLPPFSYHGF
Description: An aliquot of 5 μL of the compound dilution is added to a 96 well plate (flat bottom F, black, GREINER bio-one, #655900) in a DMSO concentration of 2%. […] Cells are cultured for 3 days in EMEM culture medium containing 10% FCS (#04-00-1A, Biological Industries). After washing twice with ice cold PBS, cells are lysed by mechanic homogenation and cleared supernatants are shock frozen in liquid nitrogen and stored at -80° C. […] An Aliquot of 45 μL is added to the compound dilution and incubated for 30 min at 37° C. The enzymatic reaction is started with the addition of 50 μL of Amplex® Red reaction mix (final assay concentration: 100 mM sodiumphosphate, 120 μM Amplex® Red reagent (#A22177 Molecular Probes), 1.5 U/mL Horseradish Peroxidase (#P8375 Sigma-Aldrich), 2 mM phenylethylamine (#[…] Sigma-Aldrich), 0.05% Pluronic F-127 (#P3000MP Sigma-Aldrich), pH 7.4, 37° C.). The turnover per time of the substrate is determined directly with a fluorescence reader (Ex 540 nm/Em 590 nm) like Envision 2104 Multilabel Reader (PERKIN ELMER) for 60 min.

Compound	IC50 (human AOC3 enzyme) [nM]	IC50 (AOC1; read-out: AOC1 IC50) [µM]	IC50 (AOC2) [nM]	fold less active against AOC2 as compared to AOC3 (ratio IC50 AOC2/IC50 AOC3) (AOC2)	IC50 (AOC1; comparison table, unit μM, read-out: IC50 AOC1) [µM]
CC(F)(F)CNC(=O)C1CCN(S(=O)(=O)c2ccc(OC/C(=C/F)CN)nc2)CC1 [Example 65]	11	> 50	–	–	–
CNC(=O)[C@H]1CCN(S(=O)(=O)c2ccc(OC/C(=C/F)CN)nc2)C1 [Example 29]	–	> 50	151	–	–
CC(=O)NC1CCN(S(=O)(=O)c2ccc(OC/C(=C/F)CN)nc2)C1 (stereo not shown) [Example 23]	62	> 50	180	–	–
NC/C(=C\F)COc1ccc(S(=O)(=O)N2C[C@H]3C[C@@]3(C(=O)N3CCOCC3)C2)cn1 [Example 30]	46	11.4	126	–	–
CN(C)C(=O)C1CN(S(=O)(=O)c2ccc(OC/C(=C/F)CN)nc2)C1 [Example 28]	42	> 49.9	158	–	–
COCCN(C)C(=O)[C@H]1[C@@H]2CN(S(=O)(=O)c3ccc(OC/C(=C/F)CN)nc3)C[C@@H]21 [Example 59]	18	27.2	–	–	–
CNC(=O)[C@@]12C[C@@H]1CN(S(=O)(=O)c1ccc(OC/C(=C/F)CN)nc1)C2 [Example 03]	25	23.6	1020	–	–
COC(=O)C1CCN(S(=O)(=O)c2ccc(OC/C(=C/F)CN)nc2)CC1 [Example 51, 1-[6-((E)-2-Aminomethyl-3-fluoro-allyloxy)-pyridine-3-sulfonyl]-piperidine-4-carboxylic acid methyl ester trifluoroacetate]	13	48	325	–	–
CC1(O)CCN(S(=O)(=O)c2ccc(OC/C(=C/F)CN)nc2)CC1 [Example 48]	24	1.49	67	–	–
CC(=O)NCC1CCN(S(=O)(=O)c2ccc(OC/C(=C/F)CN)nc2)CC1 [Example 15]	38	> 50	263	–	–
CN(C(N)=O)C1CCN(S(=O)(=O)c2ccc(OC/C(=C/F)CN)nc2)CC1 [Example 08]	37	> 50	524	–	–
NC/C(=C\F)COc1ccc(S(=O)(=O)N2CCC(C(=O)O)CC2)cn1 [Example 56]	89	34.7	34	–	–
CC1(C(=O)O)CCN(S(=O)(=O)c2ccc(OC/C(=C/F)CN)nc2)CC1 [Example 57]	2690	> 50	6	–	–
CNC(=O)C1CCN(S(=O)(=O)c2ccc(OC/C(=C/F)CN)nc2)CC1 [Example 44, 1-[6-((E)-2-Aminomethyl-3-fluoro-allyloxy)-pyridine-3-sulfonyl]-piperidine-4-carboxylic acid methylamide trifluoroacetate]	14	> 50	574	–	–
CC(=O)N[C@H]1CCCN(S(=O)(=O)c2ccc(OC/C(=C/F)CN)nc2)C1 [Example 06]	–	> 50	593	–	–
CN(C)C(=O)C1CCN(S(=O)(=O)c2ccc(OC/C(=C/F)CN)nc2)CC1 [Example 12]	38	> 50	385	–	–
CC(=O)N(C)C1CCN(S(=O)(=O)c2ccc(OC/C(=C/F)CN)nc2)CC1 [Example 20]	54	> 50	192	–	–
NC/C(=C\F)COc1ccc(S(=O)(=O)N2CC[C@H](O)C2)cn1 [Example 35, (S)-1-[6-((E)-2-Aminomethyl-3-fluoro-allyloxy)-pyridine-3-sulfonyl]-pyrrolidin-3-ol]	38	> 50	207	ca. 5 fold	> 50
